In US20030059857A1, “G-protein coupled receptor and methods” (priority 2001, published 2003):
pEC50: −log10 of the molar value.

Tests used:
Type in all cases: cell-based
SP174 receptor [1] = biological target: T1, SP174 receptor (Homo sapiens, UniProt Q9BPV8); test: FLIPR assay, HEK293f cells transiently co-transfected with SP174 receptor and chimera G protein Gq/i3; parameters: expressed in transfected cells; host or cells: HEK293f cells (G-418-resistant HEK293), transient, lipofectamine; settings: Example 1; for specific activity on SP174 transfected cells (FLIPR screen of ligand collection): versus vector/Gq/i3 negative control; for pEC50: HEK293f cells co-transfected with SP174 and Gq/i3
T1 sequence (Q9BPV8 1-333 isoform Q9BPV8-2): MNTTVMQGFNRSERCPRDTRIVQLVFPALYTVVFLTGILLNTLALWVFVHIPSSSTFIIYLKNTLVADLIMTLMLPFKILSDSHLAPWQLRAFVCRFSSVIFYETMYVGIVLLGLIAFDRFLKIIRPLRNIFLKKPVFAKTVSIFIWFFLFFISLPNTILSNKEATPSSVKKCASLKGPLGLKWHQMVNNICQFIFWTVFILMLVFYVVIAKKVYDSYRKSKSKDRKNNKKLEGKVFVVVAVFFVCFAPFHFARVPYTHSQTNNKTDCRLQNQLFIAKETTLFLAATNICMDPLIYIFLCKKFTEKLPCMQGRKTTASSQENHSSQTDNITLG
Text: SP174 receptor cDNA was subcloned into the pcDNA3.1 expression vector (Invitrogen) and transiently co-transfected with chimera G protein Gq/i3 into HEK293f cells using lipofectamine (Gibco-BRL). HEK293f cells are the HEK293 cells which are resistant to G-418. Chimera G protein Gq/i3 was constructed by replacing the C-terminus five amino acid residues of human Gqa with the five amino acid residue of human Gi3a (Conklin et al., Nature, 363, p274-276). pcDNA 3.1 vector DNA was also co-transfected with chimera G protein Gq/i3 as a negative control. The transfected cells were seeded into 96 well plates and incubated overnight at 37° C. in a tissue culture incubator. The growth medium was aspirated and replaced with […] of loading medium (DMEM containing 1% FBS, […]/10% pluronic acid and 2.5 mM Probenecid) and incubated for 1 hour at 37° C. The cells were subsequently washed 3 times with Hank's BSS buffer containing 20 mM HEPES, 2.5 mM Probenecid, and 0.1% BSA using the gentle setting in a Denley cell washer (Denley Instruments). The washed cells were placed in a Fluorometric Imaging Plate Reader (FLIPR) and changes in cellular fluorescence recorded after the addition of various dilutions of tissue extract fractions.
EC50 values for ADP, ADPβS, 2-MeS-ADP, 2-MeS-ATP, 2-Cl-ATP and IDP were […], respectively, and the order of potency was 2-MeS-ATP=2-MeS-ADP>ADP=ADPβS>IDP.
The SP174 receptor assay was similar as Example 1 a. The SP174 receptor cDNA was subcloned into the pcDNA3.1 expression vector (Invitrogen) and transiently co-transfected with Gq/i3 into HEK293f cells using lipofectamine (Gibco-BRL). pcDNA 3.1 vector DNA was also co-transfected with Gq/i3 as a negative control. A variety of nucleotides, RBI small moleculars, and in-house peptide collection were screened. Twelve compounds were identified to be the agonists of the SP174 receptor. Their fluorecence change with different amount of the compounds were detected, the data were processed using Prism software to obtain their EC50 value. Other agonists can be identified using similar approaches. To identify antagonists of the SP174 receptor, two-addition approach was adapted. First, the compounds to be screened were added to the SP174 receptor transfected cells, after 5 minutes 100 nM of ADP were added as second addition and the fluorescence changes were recorded. In this assay antagonists inhibit the fluorecence signal of ADP.

SP174 receptor [2] = biological target: T1, SP174 receptor; test: SP174 receptor ligand identification, Ca2+ FLIPR in transfected mammalian cells (description section); parameters: expressed in transfected cells; settings: values given in the description; SP174 in pcDNA3.1 transfected into mammalian cells; read-out: EC50 for SP174 (agonists)
Experimental: (§1) In order to identify SP174 receptor ligands the SP174 open reading frame was subcloned into the pcDNA3.1 expression vector under the control of the CMV promoter and transfected into mammalian cells. After allowing two days for receptor expression, the transfected cells were seeded into 96 well plates, loaded with the Ca^2+ sensitive Fluo-3AM dye and challenged with various compounds. The peak increments in Ca^2+ evoked by the test compounds were measured using the Fluorometric Imaging Plate Reader (FLIPR) system.

SP174 receptor [3] = biological target: T1, SP174 receptor; test: cAMP assay (inhibition of adenylyl cyclase) in SP174 receptor cells; parameters: expressed in transfected cells
Experimental: as §1, with “system. The endogenous ligand of the SP174 receptor was purified from rat spinal cords using a series of chromatography steps and its structure was identified as being ADP by Mass spectroscopy. […] In addition to ADP, other agonists were also identified for SP174.” for “system.”
The SP174 receptor cDNA was stably transfected into HEK293f cells according standard procedures. The SP174 receptor stable cell line and wild type cell grown on 12-well plates were incubated for 2 hr with 200 μl of medium plus 5 μCi of [3H]adenine/ml. Then 50 μl of Hepes (250 mM, pH 7.5, 50 μM Forskolin, 200 μM IBMX) with the compound to be screened is added to the cells and incubated for 10 minutes at 37° C. Incubations were terminated by addition of 0.8 ml of 5% trichloroacetic acid. [^3H]cAMP was purified using Dowex and alumina chromatography as previously described (Harden et al., Mol. Pharmacol. 21:570-580, 1982).

Compound	specific activity on SP174 transfected cells (FLIPR screen of ligand collection) (SP174 receptor [1])	pEC50 (SP174 receptor [1])	pEC50 (SP174 receptor [2])	mode of activation of the SP174 receptor (SP174 receptor [3])
Nc1nc(Cl)nc2c1ncn2[C@@H]1O[C@H](COP(=O)(O)OP(=O)(O)O)[C@@H](O)[C@H]1O [2-Cl-ADP]	specifically active	–	–	–
Nc1nc(Cl)nc2c1ncn2[C@@H]1O[C@H](COP(=O)(O)OP(=O)(O)OP(=O)(O)O)[C@@H](O)[C@H]1O [2-Cl-ATP]	–	7.03	8.10	–
CSc1nc(N)c2ncn([C@@H]3O[C@H](COP(=O)(O)OP(=O)(O)O)[C@@H](O)[C@H]3O)c2n1 [2-MeS-ADP]	specifically active	7.68	9.49	–
CSc1nc(N)c2ncn([C@@H]3O[C@H](COP(=O)(O)OP(=O)(O)OP(=O)(O)O)[C@@H](O)[C@H]3O)c2n1 [2-MeS-ATP]	–	7.01	8.10	–
Nc1ncnc2c1ncn2[C@@H]1O[C@H](COP(=O)(O)OP(=O)(O)O)[C@@H](O)[C@H]1O [ADP]	activate specifically	7.10	8.80	inhibition of adenylyl cyclase
Nc1ncnc2c1ncn2[C@@H]1O[C@H](COP(=O)(O)OP(O)(O)=S)[C@@H](O)[C@H]1O [ADPβS]	specifically active	7.37	8.10	–
Nc1ncnc2c1ncn2[C@@H]1O[C@H](COP(=O)(O)OP(=O)(O)OP(=O)(O)OC[C@H]2O[C@@H](n3cnc4c(N)ncnc43)[C@H](O)[C@@H]2O)[C@@H](O)[C@H]1O [AP3A]	specifically active	–	8.10	–
Nc1ncnc2c1ncn2[C@@H]1O[C@H](COP(=O)(O)OP(=O)(O)OP(=O)(O)O)[C@@H](O)[C@H]1O [ATP]	–	–	9.49	–
Nc1ncnc2c1ncn2[C@@H]1O[C@H](COP(=O)(O)OP(=O)(O)OP(O)(O)=S)[C@@H](O)[C@H]1O [ATPγS]	–	–	8.10	–
O=c1[nH]cnc2c1ncn2[C@@H]1O[C@H](COP(=O)(O)OP(=O)(O)O)[C@@H](O)[C@H]1O [IDP]	–	6.71	6.70	–
